Data published in US20040180943A1, “Oxazolone analogs as amyloid aggregation inhibitors and for the treatment of alzheimer's disease and disorders related to amyloidosis” (priority 2002, published 2004).
Several values for one entry are separate records, joined by “and”; a condition that tells them apart may be missing. Equal values may be shown once. Read-outs that look alike come from different tables or passages of the source.

Assays:
Assay type in all cases: biochemical
[1] = target: T1, Aβ (1-40) (Homo sapiens, UniProt P05067); experiment: BASST (Beta-Amyloid Self-Seeding, ThioflavinT), inhibitors of self-seeded amyloid fibril growth; settings: 30 μM soluble Aβ(1-40), pH 7.5, 37° C. for 3 to 5 hours, thioflavin T fluorescence
T1 construct: Soluble Aβ (1-40)—2.2 mg/mL in deionized H2O
Experimental: 2. BASST (Beta-Amyloid Self-Seeding, ThioflavinT)
An assay for inhibitors of self-seeded arnyloid fibril growth
(§1) Assay Buffer—50 mM sodium phosphate, pH 7.5, 100 mM NaCl, 0.02% NaN3, 1 M urea (filter and store at 4° C.)
Soluble Aβ (1-40)—2.2 mg/mL in deionized H2O (is stored in aliquots at −20° C.; is kept on ice when thawed) will self-seed after 1 week storage. Typically, the solution is stored until no lag phase is seen in the assay.
Final assay conditions: 30 μM soluble Aβ(1-40) in deionized water in assay buffer. Compound to be tested is dissolved in DMSO, typically 5 to 50 mM stock, such that the final concentration of DMSO is <1% v/v in the assay.
Assay: Reaction mixture for 50 assays (on ice) is comprised of 1 μL of soluble Aβ(1-40)+13.5 μL assay buffer per assay. The following are the amounts of the components of the reaction mixture that result in each of the 50 assay wells.
1) The reaction mix above is prepared by mixing the components and storing on ice.
2) 14.5 μL of reaction mixture is pipetted into each of 50 wells of a polystyrene U-bottom, 96-well microtiter plate (Corning 25881-96) on ice.
(§2) 3) 1.7 μL of diluted compound to be tested is added to each well in a column of eight, including solvent control. Serial 3-fold dilutions from 1 mM (100 μM final) in assay buffer−urea=7 dilutions+zero. Each 96-well plate can therefore accommodate 11 samples+1 Congo Red control (0.039-5 μM final in 2-fold steps).
4) The plate with aluminum film is sealed and incubated for 10 minutes on ice.
(§3) 5) The temperature is raised to 37° C. and incubated for 3 to 5 hours (depending on the lot of the peptide).
6) The aluminum film is removed and 250 μL/well of 5 μM thioflavin T (ThT) [T-3516, Sigma-Aldrich] is added in 50 mM glycine-NaOH, pH 8.5. Fluorescence is read on a plate reader (ex=440 nm/20 nm; em=485 nm/20 nm) within 5 minutes.

[2] = target: T2, Aβ(1-40) peptide (Homo sapiens, UniProt P05067); experiment: BASSR (Beta-Amyloid Self-Seeding Radioassay), inhibitors of self-seeded amyloid fibril growth; settings: 30 μM soluble Aβ(1-40) + 125I-labeled Aβ(1-40), pH 7.5, 37° C. for 3 to 5 hours, filtration
T2 construct: Soluble Aβ(1-40) peptide (Bachem, Torrance, Calif.); purchased Bachem, Torrance, Calif
Experimental: 1. BASSR (Beta-Amyloid Self-Seeding Radioassay)
An assay for inhibitors of self-seeded amyloid fibril growth
as §1
Soluble Aβ(1-40) peptide (Bachem, Torrance, Calif.)—2.2 mg/mL in deionized H2O (is stored in aliquots at −20° C.; is kept on ice when thawed) will self-seed after 1 week storage. Typically, the solution is stored until no lag phase is seen in the assay.
^125I-labeled Aβ(1-40)—150K to 350K cpm/μL in 100% acetonitrile—0.1% trifluoroacetic acid (TFA)—1% β-mercaptoethanol (aliquots stored at −20° C.). ^125I-labeled Aβ(1-40) is made in accordance with the procedure set forth by LeVine H., III, in Neurobiol. Aging, 1995;16:755, which is hereby incorporated by reference, or this reagent may be purchased from Amersham, Arlington Heights, Ill.
Final assay conditions: 30 μM soluble Aβ(1-40) in deionized water in assay buffer+20 K to 50 K cpm ^125I-labeled Aβ(1-40) per assay. Compound to be tested is dissolved in dimethylsulfoxide (DMSO), typically 5 to 50 mM stock, such that the final concentration of DMSO is <1% v/v in the assay.
Assay: Reaction mixture for 50 assays (on ice) is comprised of 0.1 to 0.2 μL of ^125I-labeled A^125I-labeled Aβ(1-40)+1 μL of soluble Aβ(1-40)+13.5 μL assay buffer per assay. The following are the amounts of the components of the reaction mixture sufficient for 50 assay wells.
1) The reaction mixture of above is prepared by mixing components and storing on ice.
2) 14.5 μL of the reaction mixture is pipetted into each of 50 wells on a polypropylene U-bottom 96-well microtiter plate on ice (Costar 3794).
as §2
4) The plate with aluminum film (Beckman 538619) is sealed and incubated for 10 minutes on ice.
as §3
6) The aluminum film is removed and 200 μL/well of ice cold assay buffer with urea is added. The radiolabeled fibrils are collected by vacuum filtration through 0.2 μm pore size GVWP filters in 96-well plates (Millipore MAGV N22, Bedford, Mass.). The radioactivity of the filters is determined by using standard methods well-known to those skilled in the art.

[3] = target: T3, Aβ (1-42) (Homo sapiens, UniProt P05067); experiment: Batym Assay (Aβ(1-42) aggregation, Thioflavin T fluorescence); settings: Aβ 1-42 final concentration 100 μM, PBS pH 7.4, 37° C. for 1 day, ThT fluorescence
T3 construct: Required Aβ (1-42) (California Peptide) is dried from its hexafluoroisopropanol (HFIP) stock solution; purchased California Peptide
Experimental: Required Aβ (1-42) (California Peptide) is dried from its hexafluoroisopropanol (HFIP) stock solution. The Aβ (1-42) is dissolved in DMSO and then mixed with phosphate buffered saline (PBS) (pH 7.4). The mixed Aβ (1-42) solution is filtered with a GVWP 0.22 μm syringe filter (Millipore, Bedford, Mass.). The compound to be tested in DMSO (50 times concentrate) is put into each well (0.5 μL/well) of a 96-well plate. The Aβ(1-42) solution is added into each well (25 μL/well). The plate is centrifuged at 1000 g for 5 minutes and incubated at 37° C. for 1 day (Aβ 1-42; final concentration 100 μM).
After incubation Thioflavin T (ThT) (30 μM) solution in glycine-NaOH buffer (pH 8.5, 50 mM) is added into each well (250 μL/well), fluorescence is measured (ex=440/20 nm, em=485/20 nm) using a fluorescence plate reader. The inhibitory activity is calculated as the reduction of fluorescence with the following formula:
Inhibition(%)={(F(Aβ)−F(Aβ+compound)}/{F(Aβ)−F(solvent−compound)}×100.
The IC50s are calculated by a curve-fitting program using the equation given below. The data is obtained from two different experiments in triplicate.
x=concentration of tested compound (M),

T3 sequence (P05067 672-713): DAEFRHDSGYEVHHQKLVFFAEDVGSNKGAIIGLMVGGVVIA
T1 sequence (P05067 672-711): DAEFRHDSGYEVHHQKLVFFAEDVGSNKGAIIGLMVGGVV
T2 sequence (P05067 672-711): as above

| SMILES | IC50 ([1]; read-out: BASST (IC50 = μM)) [µM] | IC50 ([2]; read-out: BASSR (IC50 = μM)) | IC50 [3] | IC50 ([1]; BASST (IC50 = μM)) [µM] | IC50 ([2]; BASSR (IC50 = μM)) [µM] |
| --- | --- | --- | --- | --- | --- |
| O=C1OC(c2ccccc2)=N/C1=C\c1ccccc1 [compound 1, 4-Benzylidene-2-phenyl-4H-oxazol-5-one] | > 100 | > 100 µM | – | – | – |
| CCCN(CCC)c1ccc(/C=C2/N=C(c3ccccc3)OC2=O)cc1 [compound 7, 4-(4-Dipropylamino-benzylidene)-2-phenyl-4H-oxazol-5-one] | 8 | > 100 µM | 2.42 µM and 2.36 µM | – | – |
| COc1ccc(C2=N/C(=C\c3ccccc3)C(=O)O2)cc1 [compound 5, 4-Benzylidene-2-(4-methoxy-phenyl)-4H-oxazol-5-one] | – | 16 µM | – | – | – |
| O=C1OC(c2ccccc2)=N/C1=C\c1ccc(Cl)c(Cl)c1 [compound 11, 4-(3,4-Dichloro-benzylidene)-2-phenyl-4H-oxazol-5-one] | 30 | 21 µM | – | – | – |
| COc1ccc(/C=C2\N=C(c3ccccc3)OC2=O)cc1OC [compound 4, 5(4H)-Oxazolone,4-[(3,4-dimethoxyphenyl)methylene]-2-phenyl-] | > 100 | 7 µM and 8 µM | > 100 µM | – | – |
| O=C1OC(c2ccccc2)=N/C1=C\c1ccc2c(c1)OCO2 [compound 2, 4-1,3-Benzodioxol-5-ylmethylene-2-phenyl-4H-oxazol-5-one] | – | 21 µM | > 100 µM | – | – |
| CN(C)c1ccc(/C=C2\N=C(c3ccccc3)OC2=O)c2ccccc12 [compound 6, 4-(4-Dimethylamino-naphthalen-1-ylmethylene)-2-phenyl-4H-oxazol-5-one] | 2.6 | > 100 µM | 14.5 µM | – | – |
| O=C1OC(c2ccc([N+](=O)[O-])cc2)=N/C1=C\c1ccc(Cl)c(Cl)c1 [compound 13, 4-(3,4-Dichloro-benzylidene)-2-(4-nitro-phenyl)-4H-oxazol-5-one] | 90 | 70 µM | – | – | – |
| O=C1OC(c2ccccc2)=N/C1=C\c1ccc(F)c(C(F)(F)F)c1 [compound 14, 4-(4-Fluoro-3-trifluoromethyl-benzylidene)-2-phenyl-4H-oxazol-5-one] | > 100 | > 100 µM | – | – | – |
| Cc1ccc(/C=C2\N=C(c3ccccc3)OC2=O)cc1C [compound 12, 4-(3,4-Dimethyl-benzylidene)-2-phenyl-4H-oxazol-5-one] | – | > 100 µM | – | – | – |
| COc1cccc(/C=C2\N=C(c3ccccc3)OC2=O)c1 [compound 8, 4-(3-Methoxy-benzylidene)-2-phenyl-4H-oxazol-5-one] | 7 | > 100 µM | – | – | – |
| COc1c(/C=C2\N=C(c3ccccc3)OC2=O)cc([N+](=O)[O-])cc1[N+](=O)[O-] [compound 3, 4-(2-Methoxy-3,5-dinitro-benzylidene)-2-phenyl-4H-oxazol-5-one] | – | – | – | 7 | > 100 |
| COc1cccc(/C=C2\N=C(c3ccc([N+](=O)[O-])cc3)OC2=O)c1OC [compound 9, 4-(2,3-Dimethoxy-benzylidene)-2-(4-nitro-phenyl)-4H-oxazol-5-one] | 12 | > 100 µM | – | – | – |
| COc1ccc(/C=C2\N=C(c3ccccc3I)OC2=O)cc1OC [compound 10, 4-(3,4-Dimethoxy-benzylidene)-2-(2-iodo-phenyl)-4H-oxazol-5-one] | 15 | > 100 µM | – | – | – |
